Test results taken from ChEMBL document CHEMBL1201862, “PubChem BioAssay data set” (2004).
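Compound exposure: 48 hours, 5 concentrations, 96-well plates. Abbreviation: GI50, concentration required for 50% inhibition of growth.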 Activity calls are given as the source filed them. Cut-off read from the data, not from the text of the source: active = GI50 up to about 1.1 µM and inactive = higher.

Tests used:
Experiment in all cases: NCI-60 cell line screen, 48 h
NCI/ADR-RES = test system: NCI/ADR-RES
BT-549 = test system: BT-549
CAKI-1 = test system: CAKI-1
OVCAR-3 = test system: OVCAR-3
NCI-H226 = test system: NCI-H226
RXF 393 = test system: RXF 393
M14 = test system: M14
COLO 205 = test system: COLO 205
A549 = test system: A549
UACC-257 = test system: UACC-257
DU-145 = test system: DU-145
SW-620 = test system: SW-620
MDA-N = test system: MDA-N
HOP-62 = test system: HOP-62
Hs-578T = test system: Hs-578T
SK-MEL-5 = test system: SK-MEL-5
HT-29 = test system: HT-29
SR = test system: SR
NCI-H23 = test system: NCI-H23
LOX IMVI = test system: LOX IMVI
SF-295 = test system: SF-295
CCRF-CEM = test system: CCRF-CEM
NCI-H522 = test system: NCI-H522
SF-539 = test system: SF-539
SN12C = test system: SN12C
IGROV-1 = test system: IGROV-1
UACC-62 = test system: UACC-62
UO-31 = test system: UO-31
SK-OV-3 = test system: SK-OV-3
Malme-3M = test system: Malme-3M
TK-10 = test system: TK-10
EKVX = test system: EKVX
RPMI-8226 = test system: RPMI-8226
T47D = test system: T47D
SNB-19 = test system: SNB-19
HCC 2998 = test system: HCC 2998
OVCAR-8 = test system: OVCAR-8
HCT-116 = test system: HCT-116
SK-MEL-28 = test system: SK-MEL-28
HOP-92 = test system: HOP-92
MOLT-4 = test system: MOLT-4
MDA-MB-435 = test system: MDA-MB-435
ACHN = test system: ACHN
SK-MEL-2 = test system: SK-MEL-2
SNB-75 = test system: SNB-75
PC-3 = test system: PC-3
A498 = test system: A498
OVCAR-5 = test system: OVCAR-5
HCT-15 = test system: HCT-15
U-251 = test system: U-251
MDA-MB-231 = test system: MDA-MB-231
786-0 = test system: 786-0
KM12 = test system: KM12
OVCAR-4 = test system: OVCAR-4
MCF7 = test system: MCF7
SF-268 = test system: SF-268
NCI-H460 = test system: NCI-H460
K562 = test system: K562
HL-60 = test system: HL-60

## COc1cc2c(cc1C1COc3cc4occc4cc3C1=O)OCO2 (configuration not stated)
NCI/ADR-RES
  GI50: 17.1 µM (inactive)
BT-549
  GI50: > 100 µM (inactive)
CAKI-1
  GI50: 67 µM (inactive)
OVCAR-3
  GI50: > 100 µM (inactive)
NCI-H226
  GI50: 25.7 µM (inactive)
RXF 393
  GI50: 36.3 µM (inactive)
M14
  GI50: > 100 µM (inactive)
COLO 205
  GI50: > 100 µM (inactive)
A549
  GI50: 7.11 µM (inactive)
UACC-257
  GI50: > 100 µM (inactive)
DU-145
  GI50: > 100 µM (inactive)
SW-620
  GI50: > 100 µM (inactive)
MDA-N
  GI50: > 100 µM (inactive)
HOP-62
  GI50: 40.3 µM (inactive)
Hs-578T
  GI50: 28.1 µM (inactive)
SK-MEL-5
  GI50: > 100 µM (inactive)
HT-29
  GI50: 41.2 µM (inactive)
SR
  GI50: 49.1 µM (inactive)
NCI-H23
  GI50: > 100 µM (inactive)
LOX IMVI
  GI50: > 100 µM (inactive)
SF-295
  GI50: 53.8 µM (inactive)
CCRF-CEM
  GI50: > 100 µM (inactive)
NCI-H522
  GI50: > 100 µM (inactive)
SF-539
  GI50: 35.6 µM (inactive)
SN12C
  GI50: > 100 µM (inactive)
IGROV-1
  GI50: 63 µM (inactive)
UACC-62
  GI50: > 100 µM (inactive)
UO-31
  GI50: > 100 µM (inactive)
SK-OV-3
  GI50: 34.4 µM (inactive)
Malme-3M
  GI50: 89.1 µM (inactive)
TK-10
  GI50: 29.4 µM (inactive)
EKVX
  GI50: 87.3 µM (inactive)
RPMI-8226
  GI50: 2.67 µM (inactive)
T47D
  GI50: > 100 µM (inactive)
SNB-19
  GI50: 30.1 µM (inactive)
HCC 2998
  GI50: 98.6 µM (inactive)
OVCAR-8
  GI50: 21.1 µM (inactive)
HCT-116
  GI50: > 100 µM (inactive)
SK-MEL-28
  GI50: 40.1 µM (inactive)
HOP-92
  GI50: 91 µM (inactive)
MOLT-4
  GI50: 4.05 µM (inactive)
MDA-MB-435
  GI50: > 100 µM (inactive)
ACHN
  GI50: > 100 µM (inactive)
SK-MEL-2
  GI50: > 100 µM (inactive)
SNB-75
  GI50: > 100 µM (inactive)
PC-3
  GI50: > 100 µM (inactive)
A498
  GI50: 31.8 µM (inactive)
OVCAR-5
  GI50: > 100 µM (inactive)
HCT-15
  GI50: 35.9 µM
U-251
  GI50: 76 µM (inactive)
MDA-MB-231
  GI50: > 100 µM (inactive)
786-0
  GI50: > 100 µM (inactive)
KM12
  GI50: > 100 µM (inactive)
OVCAR-4
  GI50: 2.81 µM (inactive)
MCF7
  GI50: 17.4 µM (inactive)
SF-268
  GI50: 55.1 µM (inactive)

## CCN(CC)c1ccc(/C=C/c2ccnc3ccccc23)cc1
NCI/ADR-RES
  GI50: > 100 µM (inactive)
BT-549
  GI50: > 100 µM (inactive)
CAKI-1
  GI50: > 100 µM (inactive)
OVCAR-3
  GI50: > 100 µM (inactive)
RXF 393
  GI50: > 100 µM (inactive)
M14
  GI50: > 100 µM (inactive)
COLO 205
  GI50: > 100 µM (inactive)
A549
  GI50: > 100 µM (inactive)
UACC-257
  GI50: > 100 µM (inactive)
NCI-H460
  GI50: > 100 µM (inactive)
DU-145
  GI50: > 100 µM (inactive)
SW-620
  GI50: > 100 µM (inactive)
MDA-N
  GI50: > 100 µM (inactive)
HOP-62
  GI50: > 100 µM (inactive)
Hs-578T
  GI50: > 100 µM (inactive)
SK-MEL-5
  GI50: > 100 µM (inactive)
HT-29
  GI50: > 100 µM (inactive)
SR
  GI50: > 100 µM (inactive)
NCI-H23
  GI50: > 100 µM (inactive)
LOX IMVI
  GI50: > 100 µM (inactive)
SF-295
  GI50: > 100 µM (inactive)
CCRF-CEM
  GI50: > 100 µM (inactive)
SF-539
  GI50: > 100 µM (inactive)
SN12C
  GI50: > 100 µM (inactive)
IGROV-1
  GI50: > 100 µM (inactive)
UACC-62
  GI50: > 100 µM (inactive)
UO-31
  GI50: > 100 µM (inactive)
SK-OV-3
  GI50: > 100 µM (inactive)
Malme-3M
  GI50: > 100 µM (inactive)
TK-10
  GI50: > 100 µM (inactive)
EKVX
  GI50: > 100 µM (inactive)
RPMI-8226
  GI50: > 100 µM (inactive)
T47D
  GI50: > 100 µM (inactive)
SNB-19
  GI50: > 100 µM (inactive)
HCC 2998
  GI50: > 100 µM (inactive)
HCT-116
  GI50: > 100 µM (inactive)
SK-MEL-28
  GI50: > 100 µM (inactive)
HOP-92
  GI50: > 100 µM (inactive)
MDA-MB-435
  GI50: > 100 µM (inactive)
ACHN
  GI50: > 100 µM (inactive)
K562
  GI50: > 100 µM (inactive)
SK-MEL-2
  GI50: > 100 µM (inactive)
SNB-75
  GI50: > 100 µM (inactive)
PC-3
  GI50: > 100 µM (inactive)
A498
  GI50: > 100 µM (inactive)
OVCAR-5
  GI50: > 100 µM (inactive)
HCT-15
  GI50: > 100 µM
U-251
  GI50: > 100 µM (inactive)
HL-60
  GI50: > 100 µM (inactive)
MDA-MB-231
  GI50: > 100 µM (inactive)
786-0
  GI50: > 100 µM (inactive)
KM12
  GI50: > 100 µM (inactive)
OVCAR-4
  GI50: > 100 µM (inactive)
MCF7
  GI50: > 100 µM (inactive)
SF-268
  GI50: > 100 µM (inactive)

## CCOC(=O)[C@@]12C[C@](/C=C/OC)(O[Si](C)(C)C)[C@@]13c1cc(OC)c(OC)cc1CCN3C(=O)C2=O
NCI/ADR-RES
  GI50: > 100 µM (inactive)
BT-549
  GI50: > 100 µM (inactive)
CAKI-1
  GI50: > 100 µM (inactive)
OVCAR-3
  GI50: > 100 µM (inactive)
NCI-H226
  GI50: > 100 µM (inactive)
RXF 393
  GI50: > 100 µM (inactive)
M14
  GI50: > 100 µM (inactive)
COLO 205
  GI50: > 100 µM (inactive)
A549
  GI50: > 100 µM (inactive)
UACC-257
  GI50: > 100 µM (inactive)
NCI-H460
  GI50: > 100 µM (inactive)
DU-145
  GI50: > 100 µM (inactive)
SW-620
  GI50: > 100 µM (inactive)
MDA-N
  GI50: > 100 µM (inactive)
HOP-62
  GI50: > 100 µM (inactive)
Hs-578T
  GI50: > 100 µM (inactive)
SK-MEL-5
  GI50: > 100 µM (inactive)
HT-29
  GI50: > 100 µM (inactive)
SR
  GI50: > 100 µM (inactive)
NCI-H23
  GI50: > 100 µM (inactive)
LOX IMVI
  GI50: > 100 µM (inactive)
SF-295
  GI50: > 100 µM (inactive)
CCRF-CEM
  GI50: > 100 µM (inactive)
SF-539
  GI50: > 100 µM (inactive)
SN12C
  GI50: > 100 µM (inactive)
IGROV-1
  GI50: > 100 µM (inactive)
UACC-62
  GI50: > 100 µM (inactive)
UO-31
  GI50: > 100 µM (inactive)
SK-OV-3
  GI50: > 100 µM (inactive)
Malme-3M
  GI50: > 100 µM (inactive)
TK-10
  GI50: > 100 µM (inactive)
EKVX
  GI50: > 100 µM (inactive)
RPMI-8226
  GI50: > 100 µM (inactive)
T47D
  GI50: > 100 µM (inactive)
SNB-19
  GI50: > 100 µM (inactive)
OVCAR-8
  GI50: > 100 µM (inactive)
HCT-116
  GI50: > 100 µM (inactive)
SK-MEL-28
  GI50: > 100 µM (inactive)
HOP-92
  GI50: > 100 µM (inactive)
MOLT-4
  GI50: > 100 µM (inactive)
MDA-MB-435
  GI50: > 100 µM (inactive)
ACHN
  GI50: > 100 µM (inactive)
K562
  GI50: > 100 µM (inactive)
SK-MEL-2
  GI50: > 100 µM (inactive)
SNB-75
  GI50: > 100 µM (inactive)
PC-3
  GI50: > 100 µM (inactive)
A498
  GI50: > 100 µM (inactive)
OVCAR-5
  GI50: > 100 µM (inactive)
HCT-15
  GI50: > 100 µM
U-251
  GI50: > 100 µM (inactive)
MDA-MB-231
  GI50: > 100 µM (inactive)
786-0
  GI50: > 100 µM (inactive)
KM12
  GI50: > 100 µM (inactive)
OVCAR-4
  GI50: > 100 µM (inactive)
MCF7
  GI50: > 100 µM (inactive)
SF-268
  GI50: > 100 µM (inactive)
